Experimental data published in US12552772B2, “2-pyrazole anilines and related analogs for inhibiting YAP/TAZ-TEAD” (KATHOLIEKE UNIVERSITEIT LEUVEN, priority 2021, dated 2026).

System: YAP/TAZ-TEAD transcription
Assay: Reporter gene assay for measuring the inhibition of YAP/TAZ-TEAD transcription (TEAD-responsive element luciferase reporter in Hek293T cells)
Format: cell-based
Conditions: Homo sapiens, HEK-293T, 24 hours incubation
Procedure: Hek293T cells are cultured in DMEM supplemented with 10% fetal bovine serum, Sodium pyruvate, Sodium bicarbonate, L-glutamine. The cells are harvested and transiently transfected with TEAD-responsive element luciferase reporter. Transfected cells are plated in 384-wells plate containing pre-diluted compounds. After 24 hours incubation at 37° C./5% CO2, assay plates were cooled down to RT and levelled to an equal volume per well, prior to the addition of 25 uL luciferase substrate SteadyLite (Perkin Elmer)/well. The plate was shaken for 10 min at 600 rpm, centrifuged for 1 min at 500 rpm and measured with an Envision reader (PerkinElmer). The amount of relative light units produced by the TEAD reporter is used to calculated percent of inhibition.
The percent of reporter inhibition was calculated in the presence of a positive control inhibitor (100% inhibition) versus a condition with the presence of the vehicle basal activity of the reporter (0% inhibition). The ability of a test compound to inhibit this activity was determined as: Percentage inhibition=[1−((RLU determined in the presence of vehicle−RLU determined for sample with test compound present) divided by (RLU determined in the presence of vehicle−RLU determined for sample with positive control inhibitor))]*100
The activities of the example compounds tested are depicted in the table below. The activity ranges A, B and C refer to EC50 values in the reporter gene assay as described as follows: “A”: EC50<1 μM; “B”: 1 μM s EC50≤20 μM and “C”: EC50>20 μM, NT=not tested.

Structure (SMILES)	EC50
C=Cc1ccc(Cn2ccc(-c3cccc(-c4ccccc4)c3)n2)cn1 [compound 033, 5-((3-([1,1′-biphenyl]-3-yl)-1H-pyrazol-1-yl)methyl)-2-vinylpyridine]	1000 to 20000 nM
Nc1ccc(Cn2ccc(-c3cccc(-c4ccccc4)c3)n2)cn1 [compound 034, 5-((3-([1,1′-biphenyl]-3-yl)-1H-pyrazol-1-yl)methyl)pyridin-2-amine]	> 20000 nM
C=Cc1cc(Cn2ccc(-c3cccc(-c4ccccc4)c3)n2)ccn1 [compound 035, 4-((3-([1,1′-biphenyl]-3-yl)-1H-pyrazol-1-yl)methyl)-2-vinylpyridine]	1000 to 20000 nM
CNc1cc(Cn2ccc(-c3cccc(-c4ccccc4)c3)n2)ccn1 [compound 036, 4-((3-([1,1′-biphenyl]-3-yl)-1H-pyrazol-1-yl)methyl)-N-methylpyridin-2-amine]	1000 to 20000 nM
C=CC(=O)Nc1ccc(Cn2ccc(-c3cccc(-c4ccccc4)c3)n2)cn1 [compound 037, N-(5-((3-([1,1′-biphenyl]-3-yl)-1H-pyrazol-1-yl)methyl)pyridin-2-yl)acrylamide]	1000 to 20000 nM
O=C1CCN1c1ccc(Cn2ccc(-c3cccc(-c4ccccc4)c3)n2)cn1 [compound 038, 1-(5-((3-([1,1′-biphenyl]-3-yl)-1H-pyrazol-1-yl)methyl)pyridin-2-yl)azetidin-2-one]	> 20000 nM
CCC(=O)Nc1ccc(Cn2ccc(-c3cccc(-c4ccccc4)c3)n2)cn1 [compound 039, N-(5-((3-([1,1′-biphenyl]-3-yl)-1H-pyrazol-1-yl)methyl)pyridin-2-yl)propionamide]	1000 to 20000 nM
O=C(O)c1cncc(Cn2ccc(-c3cccc(-c4ccccc4)c3)n2)c1 [compound 040, 5-((3-([1,1′-biphenyl]-3-yl)-1H-pyrazol-1-yl)methyl)nicotinic acid]	> 20000 nM
NC(=O)c1cncc(Cn2ccc(-c3cccc(-c4ccccc4)c3)n2)c1 [compound 041, 5-((3-([1,1′-biphenyl]-3-yl)-1H-pyrazol-1-yl)methyl)nicotinamide]	1000 to 20000 nM
O=C(O)c1ccncc1Cn1ccc(-c2cccc(-c3ccccc3)c2)n1 [compound 042, 3-((3-([1,1′-biphenyl]-3-yl)-1H-pyrazol-1-yl)methyl)isonicotinic acid]	> 20000 nM
NC(=O)c1ccncc1Cn1ccc(-c2cccc(-c3ccccc3)c2)n1 [compound 043, 3-((3-([1,1′-biphenyl]-3-yl)-1H-pyrazol-1-yl)methyl)isonicotinamide]	1000 to 20000 nM
c1ccc(Nc2cccc(-c3ccn(Cc4ccccn4)n3)c2)cc1 [compound 044, N-phenyl-3-(1-(pyridin-2-ylmethyl)-1H-pyrazol-3-yl) aniline]	1000 to 20000 nM
c1ccc(Nc2cccc(-c3ccn(Cc4cccnc4)n3)c2)cc1 [compound 045, N-phenyl-3-(1-(pyridin-3-ylmethyl)-1H-pyrazol-3-yl)aniline]	1000 to 20000 nM
c1ccc(Nc2cccc(-c3ccn(CCc4cccnc4)n3)c2)cc1 [compound 046, N-phenyl-3-(1-(2-(pyridin-3-yl)ethyl)-1H-pyrazol-3-yl)aniline]	1000 to 20000 nM
c1ccc(-c2cccc(-c3nnn(Cc4cccnc4)n3)c2)cc1 [compound 047, 3-((5-([1,1′-biphenyl]-3-yl)-2H-tetrazol-2-yl)methyl)pyridine]	1000 to 20000 nM
O=C(Cc1cccnc1)Nc1cccc(-c2ccccc2)c1 [compound 048, N—([1,1′-biphenyl]-3-yl)-2-(pyridin-3-yl)acetamide]	1000 to 20000 nM
O=S(=O)(F)CCNc1ccc(-c2ccccc2)cc1-c1ccn(Cc2cccnc2)n1 [compound 049, 2-((3-(1-(pyridin-3-ylmethyl)-1H-pyrazol-3-yl)-[1,1′-biphenyl]-4-yl)amino)ethane-1-sulfonyl fluoride]	1000 to 20000 nM
CNS(=O)(=O)CCNc1ccc(-c2ccccc2)cc1-c1ccn(Cc2cccnc2)n1 [compound 050, N-methyl-2-((3-(1-(pyridin-3-ylmethyl)-1H-pyrazol-3-yl)-[1,1′-biphenyl]-4-yl)amino)ethane-1-sulfonamide]	< 1000 nM
O=S1(=O)CCN(c2ccc(-c3ccccc3)cc2-c2ccn(Cc3cccnc3)n2)CC1 [compound 051, 4-(3-(1-(pyridin-3-ylmethyl)-1H-pyrazol-3-yl)-[1,1′-biphenyl]-4-yl)thiomorpholine 1,1-dioxide]	> 20000 nM

Structure (SMILES)	EC50
CN(C)S(=O)(=O)CCNc1ccc(-c2ccccc2)cc1-c1ccn(Cc2cccnc2)n1 [compound 053, N,N-dimethyl-2-((3-(1-(pyridin-3-ylmethyl)-1H-pyrazol-3-yl)-[1,1′-biphenyl]-4-yl)amino)ethane-1-sulfonamide]	< 1000 nM
O=S1(=O)CCN(c2cc(-c3ccccc3)cc(-c3ccn(Cc4cccnc4)n3)c2)CC1 [compound 055, 4-(5-(1-(pyridin-3-ylmethyl)-1H-pyrazol-3-yl)-[1,1′-biphenyl]-3-yl)thiomorpholine 1,1-dioxide]	1000 to 20000 nM
CNS(=O)(=O)CCNc1ccc(-c2ccccc2)cc1-c1ccn(C)n1 [compound 056, N-methyl-2-((3-(1-methyl-1H-pyrazol-3-yl)-[1,1′-biphenyl]-4-yl)amino)ethane-1-sulfonamide]	< 1000 nM
Cn1ccc(-c2cc(-c3ccccc3)ccc2NCCS(=O)(=O)O)n1 [compound 057, 2-((3-(1-methyl-1H-pyrazol-3-yl)-[1,1′-biphenyl]-4-yl)amino)ethane-1-sulfonic acid]	> 20000 nM
Cn1ccc(-c2cc(-c3ccccc3)ccc2NCCS(N)(=O)=O)n1 [compound 058, 2-((3-(1-methyl-1H-pyrazol-3-yl)-[1,1′-biphenyl]-4-yl)amino)ethane-1-sulfonamide]	< 1000 nM
O=C(O)CCNc1ccc(-c2ccccc2)cc1-c1ccn(Cc2cccnc2)n1 [compound 059, 3-((3-(1-(pyridin-3-ylmethyl)-1H-pyrazol-3-yl)-[1,1′-biphenyl]-4-yl)amino)propanoic acid]	< 1000 nM
CNC(=O)CCNc1ccc(-c2ccccc2)cc1-c1ccn(Cc2cccnc2)n1 [compound 060, N-methyl-3-((3-(1-(pyridin-3-ylmethyl)-1H-pyrazol-3-yl)-[1,1′-biphenyl]-4-yl)amino)propanamide]	< 1000 nM
O=C(O)CCNc1cc(-c2ccccc2)cc(-c2ccn(Cc3cccnc3)n2)c1 [compound 061, 3-((5-(1-(pyridin-3-ylmethyl)-1H-pyrazol-3-yl)-[1,1′-biphenyl]-3-yl)amino)propanoic acid]	> 20000 nM
CNC(=O)CCNc1cc(-c2ccccc2)cc(-c2ccn(Cc3cccnc3)n2)c1 [compound 062, N-methyl-3-((5-(1-(pyridin-3-ylmethyl)-1H-pyrazol-3-yl)-[1,1′-biphenyl]-3-yl)amino)propanamide]	1000 to 20000 nM
Cn1ccc(-c2cc(-c3ccccc3)ccc2NCCC(=O)O)n1 [compound 063, 3-((3-(1-methyl-1H-pyrazol-3-yl)-[1,1′-biphenyl]-4-yl)amino)propanoic acid]	< 1000 nM
CNC(=O)CCNc1ccc(-c2ccccc2)cc1-c1ccn(C)n1 [compound 064, N-methyl-3-((3-(1-methyl-1H-pyrazol-3-yl)-[1,1′-biphenyl]-4-yl)amino)propanamide]	< 1000 nM
CSCCNc1ccc(-c2ccccc2)cc1-c1ccn(Cc2cccnc2)n1 [compound 065, N-(2-(methylthio)ethyl)-3-(1-(pyridin-3-ylmethyl)-1H-pyrazol-3-yl)-[1,1′-biphenyl]-4-amine]	1000 to 20000 nM
CS(=N)(=O)CCNc1ccc(-c2ccccc2)cc1-c1ccn(Cc2cccnc2)n1 (centres unmarked) [compound 066, imino(methyl)(2-((3-(1-(pyridin-3-ylmethyl)-1H-pyrazol-3-yl)-[1,1′-biphenyl]-4-yl)amino)ethyl)-λ^6-sulfanone]	< 1000 nM
CNS(=O)(=O)CCN(C)c1ccc(-c2ccccc2)cc1-c1ccn(Cc2cccnc2)n1 [compound 067, N-methyl-2-(methyl(3-(1-(pyridin-3-ylmethyl)-1H-pyrazol-3-yl)-[1,1′-biphenyl]-4-yl)amino)ethane-1-sulfonamide]	1000 to 20000 nM
O=S1(=O)CCC(Nc2ccc(-c3ccccc3)cc2-c2ccn(Cc3cccnc3)n2)CC1 [compound 068, 4-((3-(1-(pyridin-3-ylmethyl)-1H-pyrazol-3-yl)-[1,1′-biphenyl]-4-yl)amino)tetrahydro-2H-thiopyran-1,1-dioxide]	1000 to 20000 nM
O=S1(=O)CCC(Nc2cc(-c3ccccc3)cc(-c3ccn(Cc4cccnc4)n3)c2)CC1 [compound 069, 4-((5-(1-(pyridin-3-ylmethyl)-1H-pyrazol-3-yl)-[1,1′-biphenyl]-3-yl)amino)tetrahydro-2H-thiopyran 1,1-dioxide]	1000 to 20000 nM
c1ccc(-c2ccc(NC3CCCOC3)c(-c3ccn(Cc4cccnc4)n3)c2)cc1 (centres unmarked) [compound 070, N-(3-(1-(pyridin-3-ylmethyl)-1H-pyrazol-3-yl)-[1,1′-biphenyl]-4-yl)tetrahydro-2H-pyran-3-amine]	< 1000 nM
c1ccc(-c2cc(NC3CCCOC3)cc(-c3ccn(Cc4cccnc4)n3)c2)cc1 (centres unmarked) [compound 071, N-(5-(1-(pyridin-3-ylmethyl)-1H-pyrazol-3-yl)-[1,1′-biphenyl]-3-yl)tetrahydro-2H-pyran-3-amine]	1000 to 20000 nM
O=C1CC(Nc2ccc(-c3ccccc3)cc2-c2ccn(Cc3cccnc3)n2)CCN1 (centres unmarked) [compound 072, 4-((3-(1-(pyridin-3-ylmethyl)-1H-pyrazol-3-yl)-[1,1′-biphenyl]-4-yl)amino)piperidin-2-one]	1000 to 20000 nM
